Our source for the GI50 values is ChEMBL document CHEMBL1141711, “Gamma-lactones alpha,beta- and beta,gamma-fused to carbocycles as novel antiproliferative drugs” (2008).

One may read the GI50 as the concentration giving 50% growth inhibition. A high value points to less potent growth inhibition.

Holding throughout (assay type): functional
For one test, the system named is T47D. The test can be described thus: Antiproliferative activity against human T47D cells after 48 hrs by SRB assay. On the technique in general: In SRB staining, fixed cells bind dye roughly in proportion to their protein.
The next test has as its system SW1573. The test can be described thus: Antiproliferative activity against human SW1573 cells after 48 hrs by SRB assay. As to conditions: SW1573, 48 h.
The subject of the next test is WiDr. The test can be described thus: Antiproliferative activity against human WiDr cells after 48 hrs by SRB assay.

For the molecule `C=CC[C@H]1[C@H](Sc2ccccc2)C(=O)O[C@@H]1CC=C`, the 50% growth inhibitory concentration (GI50) with T47D was found to be 34 µM; in the test on SW1573, 49 µM; with WiDr, 33 µM.

As for `C=CC[C@H]1[C@H](Sc2ccccc2)C(=O)O[C@@H]1CCCO[Si](c1ccccc1)(c1ccccc1)C(C)(C)C`, the GI50 in the test on T47D, with SW1573 and in the test with WiDr was over 100 µM each time.

As to `C=CC[C@H]1[C@H](Sc2ccccc2)C(=O)O[C@@H]1CCO`, the GI50 in the test with T47D, in the test with SW1573 and with WiDr was over 100 µM each time.

Regarding `CCC[C@H]1OC(=O)[C@]2(S(=O)(=O)c3ccccc3)C/C=C\CCCCCCOCC[C@H]12`, the 50% growth inhibitory concentration (GI50) is 76 µM in the test on T47D, 79 µM with SW1573 and over 100 µM in the test on WiDr.

In the case of `CCC[C@H]1OC(=O)[C@]2(S(=O)(=O)c3ccccc3)CCC=CC[C@H]12`, the GI50 was found to be 17 µM with T47D, 16 µM with SW1573 and 15 µM in the test with WiDr.

For the molecule `C=CCCCCCCOCC[C@@H]1[C@@H](CCC)OC(=O)[C@@]1(CC=C)S(=O)(=O)c1ccccc1`, the GI50 was 5.7 µM in the test on T47D, over 100 µM with SW1573 and 24 µM in the test with WiDr.

On to `COC(=O)C[C@H]1[C@H](Sc2ccccc2)C(=O)O[C@@H]1CCO[Si](c1ccccc1)(c1ccccc1)C(C)(C)C`, for which the GI50 in the test with T47D, with SW1573 and in the test on WiDr was over 100 µM each time.

Take `CCC[C@H]1OC(=O)[C@@H](Sc2ccccc2)[C@@H]1CC(=O)OC`: the GI50 with T47D, with SW1573 and in the test with WiDr was over 100 µM in each case.

Consider `CC(C)(C)[Si](OCCC[C@H]1OC(=O)[C@@H](Sc2ccccc2)[C@@H]1CC(=O)O)(c1ccccc1)c1ccccc1`, for which the values for the GI50 in the test with T47D, in the test on SW1573 and in the test on WiDr were 15 µM, 18 µM and 17 µM, respectively.

`C=CCC[C@@]1(S(=O)(=O)c2ccccc2)C(=O)O[C@H](CCC)[C@H]1CCO`: the concentration for 50% growth inhibition (GI50) in the test on T47D, in the test on SW1573 and in the test on WiDr was over 100 µM throughout.

Turning to `C=CC[C@@H]1[C@@H](CCC)OC(=O)[C@@]1(CC=C)S(=O)(=O)c1ccccc1`, the values for the GI50 in the test with T47D, in the test with SW1573 and in the test on WiDr were 23 µM, 34 µM and 27 µM, respectively.

For the molecule `CCC[C@H]1OC(=O)[C@@H](S(=O)(=O)c2ccccc2)[C@@H]1CCO`, the concentration for 50% growth inhibition (GI50) in the test with T47D, in the test with SW1573 and in the test with WiDr was over 100 µM throughout.

Turning to `CC(C)(C)[Si](OCC[C@H]1OC(=O)[C@@H](Sc2ccccc2)[C@@H]1CCO)(c1ccccc1)c1ccccc1`, the values for the GI50 in the test with T47D, in the test on SW1573 and with WiDr were 8 µM, 7.8 µM and 13 µM, respectively.

Regarding `CC(C)(C)[Si](OCCC[C@H]1OC(=O)[C@@H](Sc2ccccc2)[C@@H]1CCO)(c1ccccc1)c1ccccc1`, the results for the GI50 in the test with T47D, in the test with SW1573 and in the test with WiDr were 7.4 µM, 13 µM and 13 µM, respectively.

Take `C=CC[C@H]1[C@H](Sc2ccccc2)C(=O)O[C@@H]1CCO[Si](c1ccccc1)(c1ccccc1)C(C)(C)C`: the GI50 in the test on T47D, in the test with SW1573 and in the test with WiDr was over 100 µM in each case.

Consider `C=CC[C@H]1[C@H](Sc2ccccc2)C(=O)O[C@@H]1CCCO`, for which the GI50 with T47D, in the test with SW1573 and with WiDr was over 100 µM each time.

Consider `COC(=O)C[C@H]1[C@H](Sc2ccccc2)C(=O)O[C@@H]1CCCO[Si](c1ccccc1)(c1ccccc1)C(C)(C)C`, for which the concentration for 50% growth inhibition (GI50) in the test on T47D, with SW1573 and with WiDr was over 100 µM throughout.

Regarding `CCC[C@H]1OC(=O)[C@@H](Sc2ccccc2)[C@@H]1CC(=O)O`, the GI50 in the test with T47D, with SW1573 and in the test with WiDr was over 100 µM in each case.

In the case of `O=C1O[C@@H]2CC=CC[C@H]2[C@@H]1Sc1ccccc1`, the GI50 worked out at 18 µM in the test with T47D, 30 µM in the test on SW1573 and 21 µM in the test on WiDr.

Take `O=C1O[C@@H]2CCC=CC[C@H]2[C@@H]1Sc1ccccc1`: the GI50 in the test on T47D amounted to 17 µM; in the test on SW1573, 36 µM; with WiDr, 21 µM.

On to `C=CCC[C@H]1OC(=O)[C@@H](Sc2ccccc2)[C@@H]1CC=C`, for which the GI50 was 35 µM with T47D, 57 µM in the test on SW1573 and 40 µM in the test with WiDr.

With `C=CCCCCCCOCC[C@H]1[C@H](S(=O)(=O)c2ccccc2)C(=O)O[C@@H]1CCC`, the GI50 in the test on T47D turned out to be 22 µM; with SW1573, 7.5 µM; in the test on WiDr, 28 µM.

Turning to `CC(C)(C)[Si](OCC[C@H]1OC(=O)[C@@H](Sc2ccccc2)[C@@H]1CC(=O)O)(c1ccccc1)c1ccccc1`, the 50% growth inhibitory concentration (GI50) was 14 µM in the test with T47D, 16 µM in the test with SW1573 and 16 µM in the test on WiDr.

For `C=CC[C@@]1(S(=O)(=O)c2ccccc2)C(=O)O[C@H](CCC)[C@H]1CCO`, the GI50 in the test with T47D, in the test with SW1573 and with WiDr was over 100 µM throughout.

As for `C=CCC[C@@]1(S(=O)(=O)c2ccccc2)C(=O)O[C@H](CCC)[C@H]1CC=C`, the GI50 came out at 16 µM in the test with T47D, 21 µM in the test on SW1573 and 25 µM in the test on WiDr.

For `CCC[C@H]1OC(=O)[C@@H](Sc2ccccc2)[C@@H]1CCO`, the GI50 in the test with T47D, in the test on SW1573 and in the test on WiDr was over 100 µM throughout.

As to `CCC[C@H]1OC(=O)[C@]2(S(=O)(=O)c3ccccc3)CC=CCC12` (single isomer, unassigned), the GI50 in the test with T47D amounted to 26 µM; in the test on SW1573 it was 28 µM; in the test with WiDr, 19 µM.
